# Measured values from patent publication US20170226507A1, “COORDINATE CONTROL OF PATHOGENIC SIGNALING BY THE MIR-130/301 FAMILY IN PULMONARY HYPERTENSION AND FIBROPROLIFERATIVE DISEASES” (The Brigham and Women's Hospital, Inc., priority 2014, published 2017).
# Assays:
# Format in all cases: cell-based, human
# PAAFs = PAAFs in soft or stiff matrix: fibrotic gene expression, immunoblot, collagen secretion; settings: PAAFs
# Method: Cell Culture and Reagents: Primary human pulmonary arterial adventitial fibroblast cells (PAAFs) were purchased and propagated in FGM cell culture media (Lonza). Experiments were performed at passages 3 to 6. Primary human pulmonary fibroblast cells (PFs) were purchased and propagated in FGM cell culture media (Lonza). Primary human pulmonary arterial endothelial cells (PAECs) were purchased and propagated in EGM-2 cell culture media (Lonza). Experiments were performed at passages 3 to 6. Primary human pulmonary arterial smooth muscle cells (PASMCs) were purchased and propagated in SmGM-2 cell culture media (Lonza). Experiments were performed at passages 3 to 9. HEK293T cells (American Type Culture Collection) were used and cultivated in DMEM containing 10% fetal bovine serum (FBS). Cells were propagated in coated collagen plastic (50 ug/mL) at 37° C. in a humidified 5% CO2 atmosphere. Collagen-coated hydrogel were purchased.
# 3D cell culture: Protocol was adapted from previously published protocol (Aragona M et al, 2013 Cell). Cells were embedded in a mixture of Growth Factor Reduced Matrigel (BD Biosciences) and Collagen-I (BD Biosciencres). Collagen-I solution was neutralized on ice with 0.1M NaOH in PBS and adjusted with 0.1N HCl to bring the pH of the solution to 7.5. The Collagen-I solution was then mixed on ice with Matrigel to obtain a final concentration of 1.2 mg/ml (soft matrices) or 3 mg/ml (stiff matrices). Cells were trypsinized, counted, resuspended in growth medium; then, 1 volume of cells was mixed with 1 volume of the ECM mix. 6-well plated were precoated with 1 ml of cellfree 50% medium/50% ECM, and left in the incubator until gelled; then, cells were seeded in drop on top of the pregelled ECM. After gelling, wells were supplemented with normal growth medium, which was changed every 2 days during the experiments.
# Oligonucleotides and Transfection: Pre-miRNA oligonucleotides (pre-miR-130a, negative control pre-miR-NC1 and premiR-NC2) and custom designed tiny LNA oligonucleotides (tiny-130: 5′-[…]-3′ (SEQ ID NO: 52), and tiny-NC 5′-[…]-3′ (SEQ ID NO: 54)) were purchased from Life Technologies/Ambion and Exiqon, respectively. siRNAs for PPARγ and OCT4/POU5F1 were purchased from Santa Cruz Biotechnology. siRNA for TIMP2 was purchased from Life Technologies. On Target Plus siRNAs for YAP1, TAZ (WWTR1), LRP8 and scrambled control were purchased from ThermoScientific/Dhermacon. PAAF, PF, PAEC and PASMC were plated in collagen-coated dish (50 ug/mL) and transfected 24 h later at 70-80% confluence using pre-miRNA (5 nM), tiny-LNA (20 nM) or siRNA (25 nM) and Lipofectamine 2000 reagent (Life Technologies), according to the manufacturers' instructions. 8 hours after transfection cells were trypsinized and re-plated in the different hydrogel/3D-matrix.
# Primary human pulmonary arterial adventitial fibroblast cells (PAAFs) were purchased (ScienCell Research Laboratories) and grown in FGM cell culture media (Lonza). Experiments were performed at passages 3 to 6. Primary human pulmonary arterial endothelial cells (PAECs) were grown in EGM-2 cell culture media (Lonza), and experiments were performed at passages 3 to 6. Primary human pulmonary arterial smooth muscle cells (PASMCs) were cultured in SmGM-2 cell culture media (Lonza), and experiments were performed at passages 3 to 9. HEK293T cells (American Type Culture Collection) were cultivated in DMEM containing 10% fetal bovine serum (FBS). […]
# endothelin-1 = test: Quantification of endothelin-1 by ELISA in conditioned media of PAECs; settings: mimic: normoxia and hypoxia, inhibitors: hypoxia 0.2% O2
# Method: Twenty-four hours after transfection PAECs were washed in PBS, and medium was replaced by media without serum. Twenty-four hour later conditioned media from PAEC transfected as indicated were collected and endothelin-1 was measured by ELISA kit (Enzo biosciences) according to the manufacturer's protocol. Human plasma sample (see below) and mouse plasma were also tested for endothelin-1 level by ELISA.
# STAT3 = STAT3 phosphorylation in PASMCs (conditioned media from PAECs or endothelin-1; immunoblot); settings: conditioned media from transfected PAECs (mimic: normoxic, tiny-LNA: hypoxic conditioning)
# Method: (§1) (FIG. 40A) A schematic diagram of co-culture experiments: conditioned media from transfected PAECs (miRNA, anti-miRNA, tiny-LNA or siRNA under normoxic or hypoxic conditions) were filtered and applied onto naïve PASMCs cultured in matrigel. At specific times, PASMCs or PASMC-matrigel cultures were arrested and analyzed for STAT3 activation (phosphorylation) or contraction, respectively.
# (§2) 50000 PASMC were embedded in 100 ul of matrix gel as previous described (Gagiolli et al) and plated into well of a 96 well plate. After 1 h at 37° C., these matrices were overlaid with 100 ul of conditioned PAECs serum-free medium (transfected with siRNA, miRNA or anti-miRNA and supplemented with Ambriesentan 10 uM). Every 12 h, medium was changed and at day 4 the gels were photographed and the relative diameter of the well and the gel were measured using ImageJ. The percentage contraction was calculated using the formula 100*(well diameter−gel diamter)/well diameter. For the co-culture experiment, conditioned media from PAEC transfected as indicated were applied on PASMCs or Fibroblast previously starved (24 h). Cells were collected at different time and analyzed by western blotting.
# Cells were lysed in RIPA buffer (Santa Cruz Biotechnology) and the protein concentration determined using a Bradford assay (Biorad). Protein lysate ([…]) were resolved by SDS-PAGE and transferred onto a PVDF membrane (Biorad). Membranes were blocked in 5% non-fat milk in TN buffer (50 mM Tris-HCl pH 7.4, 150 mM NaCl) and incubated in the presence of the primary and then secondary antibodies. After washing in TN buffer containing 0.1% Tween, immunoreactive bands were visualized with the ECL system (Amersham Biosciences). […] Primary antibodies for STAT3 (#9139) and P-STAT3 (Tyr-705; #9145) were purchased from Cell Signaling. Primary antibodies against actin (ab 3280), was obtained from Abcam. Appropriate secondary antibodies (anti-rabbit and anti-mouse) coupled to HRP were used (Santa Cruz Biotechnology).
# PASMCs = test: Contraction assay of PASMCs in matrigel; settings: conditioned media from transfected PAECs; rosiglitazone in PAECs; ambrisentan on PASMCs
# Method: as §1, §2
substance,measurement,setting,value
"tiny-LNA-130: fully LNA-modified tiny LNA oligonucleotide 5′-ATTGCACT-3′ (SEQ ID NO: 3) complementary to the seed region of the miR-130/301 family (all LNA, backbone and methylation of C not given here)",collagen content of conditioned media (collagen secretion),PAAFs,decreased
same,ApoE,"PAAFs; immunoblot, tiny-LNA-130 in stiff conditions",increased
same,"collagen transcripts, LOX and CTGF","PAAFs; mimic in soft matrix, tiny-LNA-130 in high ECM stiffness",decreased
same,mature endothelin-1 in conditioned media,endothelin-1,decreased endothelin-1 expression to a greater extent than inhibition of miR-130a alone
same,STAT3 phosphorylation in PASMCs,STAT3,abrogated
same,actinomyosin contraction of PASMCs,PASMCs,abrogated
